# Measured values published in ChEMBL document CHEMBL6103550, “Pyrazolo-1-carbothioamides as EGR-1-DNA binding disruptors” (Bioorg Med Chem Lett, 2025).
# Biological target: Early growth response protein 1 (Homo sapiens) (UniProt P18146)
# Experiment: Disruption of EGR-1-DNA binding in TNF-alpha-stimulated human HaCaT cell nuclear extract assessed as reduction in DNA-protein complex formation pretreated for 1 hr followed by incubation of nuclear extract with biotin-EBS oligonucleotide probe (5'-CAAAAAGGAGGAAGGTGAGGGAA-biotin-3') by EMSA analysis
# Format: subcellular
# Settings: Nucleus, dose 10-20 µM
# Chain of Early growth response protein 1 (Homo sapiens) (P18146 whole entry, looked up): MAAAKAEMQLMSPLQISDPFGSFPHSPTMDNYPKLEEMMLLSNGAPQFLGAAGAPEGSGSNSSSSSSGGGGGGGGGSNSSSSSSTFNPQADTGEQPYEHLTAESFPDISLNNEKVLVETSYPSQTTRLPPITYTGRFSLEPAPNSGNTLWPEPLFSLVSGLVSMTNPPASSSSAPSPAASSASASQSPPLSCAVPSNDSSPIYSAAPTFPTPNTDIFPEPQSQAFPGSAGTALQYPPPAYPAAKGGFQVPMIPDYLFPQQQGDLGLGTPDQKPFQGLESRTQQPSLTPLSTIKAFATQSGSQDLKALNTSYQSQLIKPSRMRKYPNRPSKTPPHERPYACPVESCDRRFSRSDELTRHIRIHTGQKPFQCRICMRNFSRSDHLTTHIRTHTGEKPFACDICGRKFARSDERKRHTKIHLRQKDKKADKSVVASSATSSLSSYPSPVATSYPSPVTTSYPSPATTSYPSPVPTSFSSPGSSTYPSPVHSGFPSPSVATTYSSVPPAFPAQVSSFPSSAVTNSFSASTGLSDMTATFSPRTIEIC
row,SMILES,Activity
1,COc1ccc(NC(=S)N2N=C(c3ccc4ccccc4c3O)CC2c2c(OC)cc(OC)cc2OC)c(OC)c1 (racemic),Dose-dependent-effect

# Biological target: Early growth response protein 1 (Homo sapiens) (UniProt P18146)
# Experiment: Disruption of EGR-1-DNA binding in TNF-alpha-stimulated human HaCaT cells assessed as decrease in TSLP mRNA level in presence of TNF-alpha by RT-PCR analysis
# Format: cell-based
# Settings: dose 10-20 µM
row,SMILES,Activity
1,COc1ccc(NC(=S)N2N=C(c3ccc4ccccc4c3O)CC2c2c(OC)cc(OC)cc2OC)c(OC)c1 (racemic),Dose-dependent-effect

# Biological target: Early growth response protein 1 (Homo sapiens) (UniProt P18146)
# Experiment: Disruption of EGR-1-DNA binding in TNF-alpha-stimulated human HaCaT cells assessed as decrease in IL-31 mRNA level in presence of TNF-alpha by RT-PCR analysis
# Format: cell-based
# Settings: dose 10-20 µM
row,SMILES,Activity
1,COc1ccc(NC(=S)N2N=C(c3ccc4ccccc4c3O)CC2c2c(OC)cc(OC)cc2OC)c(OC)c1 (racemic),Dose-dependent-effect

# Biological target: Early growth response protein 1 (Homo sapiens) (UniProt P18146)
# Experiment: Disruption of EGR-1-DNA binding in TNF-alpha-stimulated human HaCaT cells assessed as decrease in CCL-2 mRNA level in presence of TNF-alpha by RT-PCR analysis
# Format: cell-based
# Settings: dose 10-20 µM
row,SMILES,Activity
1,COc1ccc(NC(=S)N2N=C(c3ccc4ccccc4c3O)CC2c2c(OC)cc(OC)cc2OC)c(OC)c1 (racemic),Dose-dependent-effect

# Biological target: Early growth response protein 1 (Homo sapiens) (UniProt P18146)
# Experiment: Disruption of EGR-1-DNA binding in TNF-alpha-stimulated human HaCaT cells assessed as decrease in IL-6 mRNA level in presence of TNF-alpha by RT-PCR analysis
# Format: cell-based
# Settings: dose 10-20 µM
row,SMILES,Activity
1,COc1ccc(NC(=S)N2N=C(c3ccc4ccccc4c3O)CC2c2c(OC)cc(OC)cc2OC)c(OC)c1 (racemic),Dose-dependent-effect

# Biological target: Early growth response protein 1 (Homo sapiens) (UniProt P18146)
# Experiment: Disruption of EGR-1-DNA binding in human HaCaT cell nuclear extract at 50 uM in the presence of biotin-EBS oligonucleotide probe (5'-CAAAAAGGAGGAAGGTGAGGGAA-biotin-3') and poly(dI-dC) by EMSA analysis relative to control
# Format: subcellular
# Settings: not given
row,SMILES,Activity
1,COc1ccc(C2=NN(C(=S)Nc3ccccc3OC)C(c3ccc(OC)c4ccccc34)C2)c(O)c1 (stereo not given),57.3%
2,COc1cc(O)c(C2=NN(C(=S)Nc3cc(OC)c(OC)c(OC)c3)C(c3ccc(OC)c4ccccc34)C2)cc1OC (stereo not given),59.1%
3,COc1ccc(NC(=S)N2N=C(c3c(O)cccc3OC)CC2c2cccc3ccccc23)cc1 (stereo not given),54%
4,COc1cccc(NC(=S)N2N=C(c3ccccc3O)CC2c2ccc(OC)c3ccccc23)c1 (stereo not given),17.1%
5,COc1cc(O)c(C2=NN(C(=S)Nc3ccccc3OC)C(c3cccc4ccccc34)C2)c(OC)c1 (stereo not given),71.3%
6,COc1ccc(NC(=S)N2N=C(c3c(O)cccc3OC)CC2c2ccc(OC)c3ccccc23)cc1 (stereo not given),66.7%
7,COc1ccccc1NC(=S)N1N=C(c2c(O)ccc3ccccc23)CC1c1ccccc1OC (stereo not given),22.9%
8,COc1cc(O)c(C2=NN(C(=S)Nc3ccccc3)C(c3ccc(OC)c4ccccc34)C2)c(OC)c1 (stereo not given),73.3%
9,COc1cccc(NC(=S)N2N=C(c3ccc(OC)cc3O)CC2c2ccc(OC)c3ccccc23)c1 (stereo not given),56.4%
10,COc1ccc(NC(=S)N2N=C(c3c(O)ccc4ccccc34)CC2c2ccccc2OC)cc1 (stereo not given),31.8%
11,COc1ccc(NC(=S)N2N=C(c3ccc4ccccc4c3O)CC2c2ccccc2OC)cc1 (stereo not given),31.2%
12,COc1cccc(NC(=S)N2N=C(c3c(O)cc(OC)cc3OC)CC2c2cccc3ccccc23)c1 (stereo not given),53.3%
13,COc1ccc(NC(=S)N2N=C(c3ccc(OC)cc3O)CC2c2ccc(OC)c3ccccc23)cc1 (stereo not given),74.4%
14,COc1ccc(C2CC(c3ccccc3O)=NN2C(=S)Nc2ccccc2)c2ccccc12 (stereo not given),22.7%
15,COc1ccccc1NC(=S)N1N=C(c2cc(OC)c(OC)cc2O)CC1c1cccc2ccccc12 (stereo not given),53.3%
16,COc1ccc(NC(=S)N2N=C(c3cc(OC)c(OC)cc3O)CC2c2cccc3ccccc23)cc1 (stereo not given),46.9%
17,COc1ccc(NC(=S)N2N=C(c3cc(OC)ccc3O)CC2c2ccc(OC)c3ccccc23)cc1 (stereo not given),28%

row,SMILES,Activity
1,COc1ccc(NC(=S)N2N=C(c3ccc(OC)cc3O)CC2c2cccc3ccccc23)cc1 (stereo not given),35.1%
2,COc1cccc(NC(=S)N2N=C(c3c(O)cccc3OC)CC2c2cccc3ccccc23)c1 (stereo not given),36.4%
3,COc1cccc(O)c1C1=NN(C(=S)Nc2ccccc2)C(c2ccc(OC)c3ccccc23)C1 (stereo not given),64%
4,COc1ccc(O)c(C2=NN(C(=S)Nc3ccccc3OC)C(c3ccc(OC)c4ccccc34)C2)c1 (stereo not given),21.8%
5,COc1cc(O)c(C2=NN(C(=S)Nc3ccccc3)C(c3cccc4ccccc34)C2)cc1OC (stereo not given),53.6%
6,COc1ccc(C2CC(c3ccc4ccccc4c3O)=NN2C(=S)Nc2ccccc2)cc1 (stereo not given),52.8%
7,COc1ccc(NC(=S)N2N=C(c3cc(OC)c(OC)cc3O)CC2c2ccc(OC)c3ccccc23)cc1 (stereo not given),57.3%
8,COc1ccccc1NC(=S)N1N=C(c2c(O)cccc2OC)CC1c1cccc2ccccc12 (stereo not given),40.9%
9,COc1ccccc1NC(=S)N1N=C(c2ccccc2O)CC1c1ccc(OC)c2ccccc12 (stereo not given),29.1%
10,COc1ccccc1NC(=S)N1N=C(c2c(O)cccc2OC)CC1c1ccc(OC)c2ccccc12 (stereo not given),67.3%
11,COc1ccc(C2CC(c3ccc4ccccc4c3O)=NN2C(=S)Nc2cc(OC)c(OC)c(OO)c2)cc1 (stereo not given),70.5%
12,COc1cccc(NC(=S)N2N=C(c3ccc(OC)cc3O)CC2c2cccc3ccccc23)c1 (stereo not given),32%
13,COc1cccc(NC(=S)N2N=C(c3c(O)cccc3OC)CC2c2ccc(OC)c3ccccc23)c1 (stereo not given),62.7%
14,COc1ccc(C2=NN(C(=S)Nc3ccccc3)C(c3cccc4ccccc34)C2)c(O)c1 (stereo not given),35.1%
15,COc1cc(O)c(C2=NN(C(=S)Nc3ccccc3OC)C(c3ccc(OC)c4ccccc34)C2)c(OC)c1 (stereo not given),70.7%
16,COc1ccccc1NC(=S)N1N=C(c2ccc3ccccc3c2O)CC1c1ccccc1OC (stereo not given),33.2%
17,COc1ccc(/C=C/c2cc(OC)cc(OC)c2-c2oc3ccc([N+](=O)[O-])cc3c(=O)c2O)cc1,36.5%

# More lines, now with the values ahead:
row,Activity,SMILES
1,56.7%,COc1cccc(NC(=S)N2N=C(c3c(O)cc(OC)cc3OC)CC2c2ccc(OC)c3ccccc23)c1 (stereo not given)
2,35.6%,COc1cc(NC(=S)N2N=C(c3ccc4ccccc4c3O)CC2c2cccc(OC)c2OC)cc(OC)c1OC (stereo not given)
3,44%,COc1ccc(C2CC(c3ccc4ccccc4c3O)=NN2C(=S)Nc2ccccc2)c(OC)c1OC (stereo not given)
4,30.8%,COc1cccc(C2CC(c3ccc4ccccc4c3O)=NN2C(=S)Nc2cc(OC)c(OC)c(OC)c2)c1 (stereo not given)
5,46.5%,COc1ccccc1NC(=S)N1N=C(c2ccc3ccccc3c2O)CC1c1ccc(OC)c(OC)c1OC (stereo not given)
6,42.4%,COc1cc(O)c(C2=NN(C(=S)Nc3cc(OC)c(OC)c(OC)c3)C(c3cccc4ccccc34)C2)cc1OC (stereo not given)
7,48%,COc1cccc(NC(=S)N2N=C(c3ccc4ccccc4c3O)CC2c2ccc(OC)cc2OC)c1 (stereo not given)
8,59%,COc1cc(OC)cc(C2CC(c3ccc4ccccc4c3O)=NN2C(=S)Nc2ccccc2)c1 (stereo not given)
9,46%,COc1ccc(C2CC(c3ccc4ccccc4c3O)=NN2C(=S)Nc2ccccc2OC)c(OC)c1 (stereo not given)
10,27%,COc1ccc(NC(=S)N2N=C(c3ccc4ccccc4c3O)CC2c2cccc(OC)c2OC)cc1 (stereo not given)
11,82.2%,COc1ccc(NC(=S)N2N=C(c3ccc4ccccc4c3O)CC2c2c(OC)cc(OC)cc2OC)c(OC)c1 (racemic)
12,56.5%,COc1ccc(NC(=S)N2N=C(c3ccc4ccccc4c3O)CC2c2cc(OC)c(OC)cc2OC)c(OC)c1 (stereo not given)
13,64.2%,COc1ccc(C2CC(c3ccc4ccccc4c3O)=NN2C(=S)Nc2ccc(OC)cc2OC)cc1 (stereo not given)
14,55.5%,COc1cccc(NC(=S)N2N=C(c3ccc4ccccc4c3O)CC2c2cc(OC)c(OC)cc2OC)c1 (stereo not given)
15,67.8%,COc1ccc(NC(=S)N2N=C(c3ccc4ccccc4c3O)CC2c2cccc(OC)c2OC)c(OC)c1 (stereo not given)
16,71.8%,COc1cc(NC(=S)N2N=C(c3c(O)cccc3OC)CC2c2ccc(OC)c3ccccc23)cc(OC)c1OC (stereo not given)
17,36.4%,COc1cccc(NC(=S)N2N=C(c3cc(OC)c(OC)cc3O)CC2c2cccc3ccccc23)c1 (stereo not given)
18,40.8%,COc1cc(OC)cc(C2CC(c3ccc4ccccc4c3O)=NN2C(=S)Nc2ccccc2OC)c1 (stereo not given)

row,Activity,SMILES
1,42.8%,COc1cccc(NC(=S)N2N=C(c3ccc4ccccc4c3O)CC2c2cc(OC)cc(OC)c2)c1 (stereo not given)
2,51.6%,COc1cc(NC(=S)N2N=C(c3c(O)cccc3OC)CC2c2cccc3ccccc23)cc(OC)c1OC (stereo not given)
3,27%,COc1cccc(C2CC(c3ccc4ccccc4c3O)=NN2C(=S)Nc2ccc(OC)cc2OC)c1 (stereo not given)
4,81.8%,COc1cc(OC)c(C2CC(c3ccc4ccccc4c3O)=NN2C(=S)Nc2ccccc2)cc1OC (stereo not given)
5,38%,COc1cccc(NC(=S)N2N=C(c3ccc4ccccc4c3O)CC2c2ccc(OC)c(OC)c2OC)c1 (stereo not given)
6,46.8%,COc1ccc(NC(=S)N2N=C(c3ccc4ccccc4c3O)CC2c2ccc(OC)c(OC)c2OC)c(OC)c1 (stereo not given)
7,60.2%,COc1ccc(NC(=S)N2N=C(c3ccc4ccccc4c3O)CC2c2ccc(OC)cc2OC)c(OC)c1 (stereo not given)
8,68.8%,COc1ccccc1NC(=S)N1N=C(c2ccc3ccccc3c2O)CC1c1cc(OC)c(OC)cc1OC (stereo not given)
9,44.5%,COc1ccc(NC(=S)N2N=C(c3ccc4ccccc4c3O)CC2c2ccc(OC)cc2OC)cc1 (stereo not given)
10,64.8%,COc1cccc(NC(=S)N2N=C(c3ccc4ccccc4c3O)CC2c2c(OC)cc(OC)cc2OC)c1 (stereo not given)
11,49.5%,COc1ccc(NC(=S)N2N=C(c3ccc4ccccc4c3O)CC2c2ccc(OC)c(OC)c2OC)cc1 (stereo not given)
12,64.2%,COc1ccc(NC(=S)N2N=C(c3ccc4ccccc4c3O)CC2c2c(OC)cc(OC)cc2OC)cc1 (stereo not given)
13,69%,COc1ccc(NC(=S)N2N=C(c3ccc4ccccc4c3O)CC2c2cc(OC)c(OC)cc2OC)cc1 (stereo not given)
14,38.2%,COc1cc(O)c(C2=NN(C(=S)Nc3cc(OC)c(OC)c(OC)c3)C(c3cccc4ccccc34)C2)c(OC)c1 (stereo not given)
15,44.8%,COc1cccc(NC(=S)N2N=C(c3ccc4ccccc4c3O)CC2c2ccccc2OC)c1 (stereo not given)
16,16.5%,COc1cccc(NC(=S)N2N=C(c3ccc4ccccc4c3O)CC2c2cccc(OC)c2)c1 (stereo not given)
17,67.5%,COc1cc(OC)cc(C2CC(c3ccc4ccccc4c3O)=NN2C(=S)Nc2cc(OC)c(OC)c(OC)c2)c1 (stereo not given)
18,73.3%,COc1ccc(C2=NN(C(=S)Nc3cc(OC)c(OC)c(OC)c3)C(c3ccc(OC)c4ccccc34)C2)c(O)c1 (stereo not given)
